Results reported in the supplement of paper PMC8967900.

Legend:
Experiment in all cases: selective drug sensitivity score (sDSS, relative to normal bone marrow) (sDSS (score)); higher = more potent and effective on the cell line relative to normal bone marrow cells
Settings in all cases: 72 h
CCRF-CEM = test system: CCRF-CEM
P30-OHKUBO = test system: P30-OHKUBO
PF-382 = test system: PF-382
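Further: ALL cell lines in 384-well plates, five doses spanning 10,000-fold, each plate scaled between vehicle and 100 µmol/L benzalkonium chloride controls, sDSS an adapted area-under-curve metric.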

SMILES	selective drug sensitivity score (CCRF-CEM)	selective drug sensitivity score (P30-OHKUBO)	selective drug sensitivity score (PF-382)
Cc1ccc(Nc2nccc(N(C)c3ccc4c(C)n(C)nc4c3)n2)cc1S(N)(=O)=O [Pazopanib] (top concentration 10000 nM)	0.04	5.14	1.74
Cc1cccc(CC(=O)N2CCc3c2ccc(-c2cn(C)c4ncnc(N)c24)c3F)n1 (top concentration 2500 nM)	-0.08	3.52	3.72
CCOC(=O)CCNc1cc(N2CCc3ccccc3CC2)nc(-c2ccccn2)n1 [GSK-J4] (top concentration 100000 nM)	-6.68	-8.18	-7.58
C[C@H](Nc1ncnc2[nH]cnc12)c1cc2ccc(F)cc2nc1-c1ccccn1 [AMG319] (top concentration 1000 nM)	-1.42	4.08	-1.42
Cc1cn(-c2cc(NC(=O)c3ccc(C)c(Nc4nccc(-c5cccnc5)n4)c3)cc(C(F)(F)F)c2)cn1 [Nilotinib] (top concentration 10000 nM)	2.1	2.5	2.7
O=C(NOC[C@H](O)CO)c1ccc(F)c(F)c1Nc1ccc(I)cc1F (top concentration 1000 nM)	1.14	-4.16	-2.36
COc1ccc2[nH]cc(/C=C3\C(=O)Nc4ccc(NC(=O)CCN5CCCCC5)cc43)c2c1 (top concentration 50000 nM)	-0.02	0.38	1.18
CO[C@H]1C(=O)[C@]2(C)[C@@H](OC)C[C@H]3OC[C@@]3(OC(C)=O)[C@H]2[C@H](OC(=O)c2ccccc2)[C@]2(O)C[C@H](OC(=O)[C@H](O)[C@@H](NC(=O)OC(C)(C)C)c3ccccc3)C(C)=C1C2(C)C [Cabazitaxel] (top concentration 1000 nM)	20.5	20.3	10.9
COc1c(OCCCN2CCOCC2)ccc2c1N=C(NC(=O)c1cnc(N)nc1)N1CCN=C21 [Copanlisib] (top concentration 1000 nM)	10.2	10.1	2.58
C=CCn1c(=O)c2cnc(Nc3ccc(N4CCN(C)CC4)cc3)nc2n1-c1cccc(C(C)(C)O)n1 [AZD1775] (top concentration 10000 nM)	14.2	13.7	12.4
Nc1nc(NC2CC2)cc(-c2cccc(Cl)c2Cl)n1 [TH588] (top concentration 25000 nM)	7.52	4.02	6.72
CN(C)Cc1c(C(=O)NCCOc2ccc(C(=O)NO)cc2)oc2ccccc12 [Abexinostat] (top concentration 10000 nM)	4.56	5.56	2.86
C[C@@H]1CN(CC(=O)Nc2ccc3c(c2)Cc2cccc(-c4cc(=O)cc(N5CCOCC5)o4)c2S3)C[C@H](C)O1 (top concentration 25000 nM)	2.62	3.42	0.82
O=C(c1cccc(Cl)c1F)N1CCN(Cc2cccc(Nc3nccs3)n2)CC1 [MK-8745] (top concentration 10000 nM)	12.1	9.1	8.5
COc1ccc(-c2ccc3ncc4c(c3c2)n(-c2ccc(N3CCNCC3)c(C(F)(F)F)c2)c(=O)n4C)cn1 [NVP-BGT226] (top concentration 1000 nM)	10.1	12.2	6.02
Cc1[nH]c2ccccc2c1CCNCc1ccc(/C=C/C(=O)NO)cc1 [Panobinostat] (top concentration 1000 nM)	5.34	6.64	4.34
O=C(CCCCCCC(=O)Nc1ccccc1)NO [Vorinostat] (top concentration 10000 nM)	5.9	10	4.1
Cc1cc(Nc2cc(N3CCN(C)CC3)nc(/C=C/c3ccccc3)n2)n[nH]1 [ENMD-2076] (top concentration 10000 nM)	5.04	8.94	1.34
C=CC(=O)Nc1cc2c(Nc3ccc(F)c(Cl)c3)ncnc2cc1OCCCN1CCOCC1 [Canertinib] (top concentration 10000 nM)	1.56	2.26	-0.54
Cn1ncnc1[C@H]1c2n[nH]c(=O)c3cc(F)cc(c23)N[C@@H]1c1ccc(F)cc1 [Talazoparib] (top concentration 1000 nM)	5.98	9.68	-3.62
